According to US11883413B2, “Inhibition of thymine DNA glycosylase in the treatment of cancer” (Institute For Cancer Research, priority 2013, dated 2024):

Columns and labels:
SK28 cells = assay: MTS cell viability assay; format: cell-based; conditions: for cell viability of SK28 cells: concentration-dependent, quadruplicate
Description: (§1) Tests were conducted in quadruplicate.

TDG [1] = molecular target: T1, TDG (Homo sapiens, UniProt Q13569); assay: standard (conventional) radioactive-based glycosylase assay; format: biochemical; conditions: tested at 100 nM, 10 μM and 1 mM
Description: (§2) (A) Schematic of the molecular beacon assay for G:T repair.
(§3) This assay was optimized for a 96-well and 384-well format. Upon screening the ICCB known bioactive library (approximately 500 compounds) and the Johns Hopkins clinical compound library (approximately 1500 drugs), eighteen and fourteen candidates, respectively (Tables 1 and 2) were identified. Some of these compounds confirmed TDG inhibition in a standard, radioactive-based glycosylase assay (FIG. 19).

SK28 MEL melanoma cells = assay: clonogenic assay; format: cell-based
Description: as §1

TDG [2] = molecular target: T1, TDG; assay: TDG glycosylase activity in vitro (FIG. 24-25); format: biochemical
[3] = tested on: LNCaP prostate cancer cells; assay: MTS assay, prostate cancer cells; format: cell-based
Description: (§4) The TDG inhibitors, juglone and closantel, were tested for their ability to kill PC3 and LNCaP prostate cancer cells.

[4] = tested on: PC3 prostate cancer cells; assay: MTS assay, prostate cancer cells; format: cell-based
Description: as §4

[5] = tested on: LNCaP prostate cancer cells; assay: clonogenic assay, prostate cancer cells; format: cell-based
Description: as §4

[6] = tested on: PC3 prostate cancer cells; assay: clonogenic assay, prostate cancer cells; format: cell-based
Description: as §4

cancer cells = assay: 5caC levels on chemotherapeutic treatment combined with TDG downregulation/inhibition; format: cell-based; conditions: for 5-carboxylcytosine levels, TDG inhibitor combined with temozolomide: combined with temozolomide treatment
Description: Vincristin is an inhibitor of mitosis that arrests cells in metaphase; it is used as a chemotherapeutic agent for leukemia/lymphoma and melanoma.

SK28 melanoma cells = assay: 5-carboxylcytosine (5caC) immunofluorescence staining of cells; format: cell-based; conditions: SK28 melanoma cells treated with compound
TDG [7] = molecular target: T1, TDG; assay: molecular beacon qPCR-based assay of TDG glycosylase activity (G:T / G:U repair), library screen; format: biochemical; conditions: 0, 5, 50 and 500 μg/ml
Description: as §2
In the folded hairpin substrate, the fluorescence of 6-FAM, used as fluorescent label at the 5′ end, is quenched by a dabsyl “black hole” moiety at the 3′ end. Upon removal of the mismatched T or U by TDG, and incision of the resulting apurinic/apyrimidinic (AP site) by APE, a short oligonucleotide containing 6-FAM was released. The resulting fluorescence was monitored by real-time qPCR over a 2-hour incubation period at 37° C., providing a sensitive and quantitative measurement of repair activity.
as §3

[8] = combined with TDG downregulation (C8)

T1 sequence (Q13569 whole entry): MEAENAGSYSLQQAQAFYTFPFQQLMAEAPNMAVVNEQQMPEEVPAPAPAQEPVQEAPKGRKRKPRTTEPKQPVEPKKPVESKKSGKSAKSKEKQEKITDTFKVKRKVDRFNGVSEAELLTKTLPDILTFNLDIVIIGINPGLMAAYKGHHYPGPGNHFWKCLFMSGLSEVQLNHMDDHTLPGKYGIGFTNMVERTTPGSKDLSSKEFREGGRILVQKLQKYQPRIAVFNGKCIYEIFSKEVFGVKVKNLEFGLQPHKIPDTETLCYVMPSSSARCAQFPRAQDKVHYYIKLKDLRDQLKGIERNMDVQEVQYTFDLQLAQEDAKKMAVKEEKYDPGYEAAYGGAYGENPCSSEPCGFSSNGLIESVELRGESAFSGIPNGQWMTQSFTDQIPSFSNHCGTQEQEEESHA

Row | SMILES | cell viability of SK28 cells (SK28 cells) | inhibition of TDG activity, conventional glycosylase assay (TDG [1]) | relative potency in conventional glycosylase assay (TDG [1]) | clonogenic capacity of SK28 MEL melanoma cells (SK28 MEL melanoma cells) | inhibition of TDG glycosylase activity in vitro (TDG [2]) | proliferation of LNCaP cells, MTS assay [3] | proliferation of PC3 cells, MTS assay [4] | proliferation of LNCaP cells, clonogenic assay [5] | proliferation of PC3 cells, clonogenic assay [6] | 5-carboxylcytosine levels, TDG inhibitor combined with temozolomide (cancer cells) | 5caC staining in the nuclei of cells in culture (SK28 melanoma cells) | inhibition of TDG activity, molecular beacon assay for G:T repair (TDG [7]) | SK28 cell viability, cisplatin combined with TDG downregulation (SK28 cells; [8]) | 5caC levels, vincristine combined with TDG downregulation (cancer cells; [8]) | 5caC levels, vincristine alone (cancer cells; in the absence of TDG downregulation (pLKO))
1 | C=CC1=C(C(=O)O)N2C(=O)[C@@H](NC(=O)/C(=N\OCC(=O)O)c3csc(N)n3)[C@H]2SC1 [Cefixime, (6R,7R)-7-{[2-(2-amino-1,3-thiazol-4-yl)-2-(carboxymethoxyimino)acetyl]amino}-3-ethenyl-8-oxo-5-thia-1-azabicyclo[4.2.0]oct-2-ene-2-carboxylic acid] | reduce cell viability | inhibition of TDG activity | more potent than compound 2, closantel | reduction of clonogenic capacity |  |  |  |  |  |  |  |  |  |  | 
2 | Cc1cc(C(C#N)c2ccc(Cl)cc2)c(Cl)cc1NC(=O)c1cc(I)cc(I)c1O (stereo not drawn) [Closantel, 5′-Chloro-4′-(4-chloro-α-cyanobenzyl)-3,5-diiodo-2′-methylsalicylanilide, N-[5-Chloro-4-(4-chloro-α-cyanobenzyl)-2-methylphenyl]-2-hydroxy-3,5-diiodobenzamide] | reduce cell viability | inhibition of TDG activity |  | reduction of clonogenic capacity | inhibition of TDG glycosylase activity in vitro | stopped proliferation | stopped proliferation | stopped proliferation | stopped proliferation | highly elevated | increase 5caC staining |  |  |  | 
3 | O=C1C=CC(=O)c2c(O)cccc21 [Juglone, 5-hydroxynaphthoquinone] | reduce cell viability |  |  | reduction of clonogenic capacity | inhibition of TDG glycosylase activity in vitro | stopped proliferation | stopped proliferation | stopped proliferation | stopped proliferation | highly elevated | increase 5caC staining | Dose dependent inhibition |  |  | 
4 | N.N.[Cl][Pt][Cl] [cisplatin] |  |  |  |  |  |  |  |  |  |  |  |  | reduction of SK28 cell viability |  | 
5 | CC[C@]1(O)C[C@H]2CN(CCc3c([nH]c4ccccc34)[C@@](C(=O)OC)(c3cc4c(cc3OC)N(C=O)[C@H]3[C@@](O)(C(=O)OC)[C@H](OC(C)=O)[C@]5(CC)C=CCN6CC[C@]43[C@@H]65)C2)C1 [vincristine] |  |  |  |  |  |  |  |  |  |  |  |  |  | further increased | increase of 5caC levels
